Reference: patent US20060051764A1, “Thymidylate synthase polymorphisms for use in screening for cancer susceptibility” (priority 2002, published 2006)

Key:
[1] = tested on: disseminated colorectal cancer; test: Clinical outcome (response and survival) to protracted infusion of 5-FU in colorectal cancer patients by TS genotype; format: in vivo, human
Procedure: To explore the role of SNP as a predictive marker, 40 patients were evaluated with disseminated colorectal cancer (SWOG 9420 and 3C-92-2) for response and survival to protracted infusion of 5-fluorouracil. The distribution of the TS tandem repeat polymorphism was as follows: 2R/2R 20% (8/40), 2R/3R 50% (20/40), and 3R/3R 30% (12/40). […] This relationship also lacked statistical significant (P=0.14, Logrank Test).
Patient samples were re-classified into two groups based on predicted high and low TS expression using the tandem repeat polymorphism and the SNP. Since it was hypothesized that the SNP, or variant 3R (3RV) allele, would decrease the TS gene expression of a 3R allele, 21 patients were grouped with genotypes of 2R/2R, 2R/3RV and 3RV/3RV into the predicted “low TS expression” group (Group A) and 19 patients with 2R/3R, 3R/3RV, and 3R/3R into the predicted “high TS expression” group (Group B). These groups were then re-evaluated for an association between TS genotypes and clinical outcome to 5-FU chemotherapy.
The presence of the new SNP within the TS gene was confirmed in Non-Hispanic Whites. Individuals (disease-free controls) were initially recruited for a cancer case-control study in California as described in Castelao et al., 2001. Patients included in this study has metastatic colorectal cancer and were enrolled in the following protocols: Southwest Oncology Group protocol 9420 (19 patients, 5-FU doses used: CI (continuous infusion) 300 mg/m^2/d v. CI 2600 mg/m^2/d q weekly) opened for accrual in May 1995 and closed in May 1999; and the University of Southern California protocol: 3C-92-2 (21 patients, 5-FU doses used: CI 200 mg/m^2/d q weekly for three weeks followed by one week rest) opened for accrual in September 1992 and closed in June 1995. All patients signed an informed consent to participate in the clinical trial and for evaluation of the TS polymorphism. Genotyping for the TS polymorphism was performed on paraffin-embedded tissues in all patients.
All patients had bi-dimensionally measurable disease at the time of protocol entry. Responders to therapy were classified as those patients whose tumor burden (the sum, overall measurable lesions of the products of the largest diameter and its perpendicular diameter) decreased by 50% or more for at least six weeks. Progressive disease was defined as 25% or more increase in tumor burden (compared to the smallest measurement) or the appearance of new lesions.
Survival was computed as the number of months from the initiation of chemotherapy with 5-FU to death of any cause. Patients who were alive at the last follow-up evaluation were censored at that time.
Contingency tables and Fisher's exact test (Metha et al., 1983) were used to summarize the association of response (grouped as response, stable disease, and progressive disease) to 5-FU with the TS genotypes. Kaplan-Meier plots (Kaplan et al., 1958) and the log-rank test (Miller et al., 1981) were used to compare survival of patients according to TS genotypes. Median survival was calculated based on the Kaplan-Meier estimator. All p-values are two-sided.

[2] = biological target: T1, USF-1 phosphorylated by cdc2/p34 (Homo sapiens, UniProt P22415 P22415:1-310); test: EMSA; 1 mM MgCl2, 50 mM NaCl, room temperature; conditions: tags: N-terminal 6xHis (pProEX-HTb, E. coli), in vitro phosphorylated with cdc2/p34; chain copies: 2; label: 32P
Procedure: Since the potential G→C SNP at the 12th nucleotide of the 28 bp repeats lies within the USF binding site, the ability of the recombinant USF-1 protein to bind the variant consensus element by EMSA was tested. […] Gel mobility shift analyses were performed using recombinant USF-1 with a ³²P-labeled 28 bp probe corresponding to one tandem repeat containing a G→C base change at the 12th nucleotide. Lane 1 was free probe. In lane 2, 30 ng of recombinant USF-1 was incubated with probe. In lane 3, 30 ng of phospho-USF-1 was incubated with probe.
(§1) Synthetic double-stranded oligonucleotides (Integrated DNA Technologies) corresponding to a wild type (R) or variant (RV) 28 bp tandem repeat sequence from the TS 5′ regulatory region were labeled with [γ-³²P] ATP (Amersham Pharmacia Biotech) according to the Gel-Shift Assay Kit protocol (Promega). For each gel shift reaction, 10,000 cpm of labeled probe 30 ng of recombinant USF-1 for 20 min at room temperature in a 20 μl reaction mixture containing 10 mM Tris-HCl, pH 7.5, 50 mM NaCl, 0.5 mM dithiothreitol, 0.5 mM EDTA, 4% glycerol, 1 mM MgCl₂ and 0.1 μg of poly(dIdC) DNA. Where indicated, unlabeled competitor oligonucleotides were incubated for 10 min at room temperature with nuclear extracts prior to addition of labeled probe.
Reactions using recombinant USF-1 contained ˜30 ng of either USF-1 or phospho USF-1. […]

[3] = biological target: T1, USF-1 phosphorylated by cdc2/p34; test: EMSA; consensus probe; sequence taken from the listed USF-1 specific oligonucleotide; conditions: tags: N-terminal 6xHis (pProEX-HTb, E. coli), in vitro phosphorylated with cdc2/p34; chain copies: 2; label: 32P when used as probe
Procedure: When both forms of USF-1 were used in an EMSA assay utilizing the perfect USF-1 consensus element as a probe, only the phosphorylated form was able to bind (FIG. 3B, lanes 2 and 3). Gel mobility shift analyses were performed using recombinant USF-1 with a ³²P-labeled USF-1 specific consensus probe containing an intact E-box site. Lane 1 contained only free probe. Lane 2 was 30 ng of recombinant phospho-USF-1 incubated with probe in the absence of unlabeled competitor oligonucleotides. Lane 3 contained 30 ng of recombinant unphosphorylated USF-1 incubated with probe in the absence of unlabeled specific competitor oligonucleotides. In lanes 4-5, phospho-USF-1 was pre-incubated with 500 molar excess of unlabeled USF-1 specific competitor oligonucleotide and 500 molar excess of nonspecific dIdC competitor, respectively.
as §1, with “Where indicated, unlabeled competitor oligonucleotides were incubated for 10 min at room temperature with nuclear extracts prior to addition of labeled probe.” left out

[4] = biological target: T1, USF-1 phosphorylated by cdc2/p34; test: EMSA; 1 mM MgCl2, 50 mM NaCl, room temperature; abolished by USF-1 specific competitor; conditions: tags: N-terminal 6xHis (pProEX-HTb, E. coli), in vitro phosphorylated with cdc2/p34; chain copies: 2; label: 32P
Procedure: To determine the ability of the phosphorylated form of USF-1 to bind to its consensus element within the TS repeat, an EMSA assay was carried out using the ³²P-labeled 28 bp sequence as a probe corresponding to one tandem repeat containing an intact E-box site. Lane 1 was free probe. In lane 2, 30 ng of recombinant USF-1 was incubated with probe in the absence of unlabeled competitor oligonucleotides. In lane 3, 30 ng of phospho-USF-1 was incubated with probe in the absence of unlabeled competitor oligonucleotides. In lanes 4-6, phospho-USF-1 was pre-incubated with 500 molar excess of: unlabeled probe, USF-1 specific competitor, and non-specific poly (dIdC) competitor oligonucleotides, respectively. Incubation of the phosphorylated form of USF-1 with the probe caused a shift on the gel that was abolished by the addition of unlabeled specific competitor oligonucleotides (FIG. 3C, lanes 3 and 5).
Synthetic double-stranded oligonucleotides (Integrated DNA Technologies) corresponding to a wild type (R) or variant (RV) 28 bp tandem repeat sequence from the TS 5′ regulatory region were labeled with [γ-³²P] ATP (Amersham Pharmacia Biotech) according to the Gel-Shift Assay Kit protocol (Promega). […]

[5] = patients with TS genotype 2R/2R (n = 8)
[6] = patients with TS genotype 2R/3R (n = 20)
[7] = patients with TS genotype 3R/3R (n = 12)

T1 sequence (P22415 whole entry, one chain of several): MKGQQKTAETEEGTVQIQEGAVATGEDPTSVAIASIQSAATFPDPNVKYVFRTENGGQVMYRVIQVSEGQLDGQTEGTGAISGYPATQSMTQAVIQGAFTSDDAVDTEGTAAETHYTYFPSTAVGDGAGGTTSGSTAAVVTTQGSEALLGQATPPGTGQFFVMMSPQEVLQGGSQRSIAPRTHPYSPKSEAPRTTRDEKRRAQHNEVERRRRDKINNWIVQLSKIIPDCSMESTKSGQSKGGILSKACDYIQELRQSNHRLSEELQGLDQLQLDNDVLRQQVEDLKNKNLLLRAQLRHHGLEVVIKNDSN

O=c1[nH]cc(F)c(=O)[nH]1 [5-FU, 5-fluorouracil]
median survival ([1]; 3R/3R carriers): 8.4 months | survival ([1]; Group A, predicted low TS expression (2R/2R, 2R/3RV, 3RV/3RV)): 10.1 months | Clinical Response: Stable Disease ([1]; Group A, predicted low TS expression: 2R/2R, 2R/3RV, 3RV/3RV (n = 21)): 4 (19%) | survival ([1]; Group B, predicted high TS expression (2R/3R, 3R/3RV, 3R/3R)): 7.4 months | Clinical Response: Stable Disease ([1]; Group B, predicted high TS expression: 2R/3R, 3R/3R, 3R/3RV (n = 19)): 7 (37%) | median survival ([1]; heterozygous group (2R/3R)): 7.4 months | median survival ([1]; patients with TS genotype 2R/2R): 16.2 months | Clinical Response: Progression [1, 5]: 3 (37%) | Clinical Response: Stable Disease [1, 5]: 1 (13%) | Clinical Response: Progression [1, 6]: 12 (60%) | Clinical Response: Stable Disease [1, 6]: 5 (25%) | disease response (patients responding/total) ([1]; patients with TS genotype 3R/3R): 0/12 | Clinical Response: Progression [1, 7]: 7 (58%) | Clinical Response: Response [1, 7]: 0 (0%) | Clinical Response: Stable Disease [1, 7]: 5 (42%)

B1: TS variant tandem repeat (RV) (dsDNA)
DNA 1: CCGCGCCACTTCGCCTGCCTCCGTCCCG
DNA 2: CGGGACGGAGGCAGGCGAAGTGGCGCGG
binding result [2]: no binding

B2: USF-1 consensus oligonucleotide (dsDNA)
DNA 1: CACCCGGTCACGTGGCCTACACC
DNA 2: GGTGTAGGCCACGTGACCGGGTG
binding result [3]: binds

B3: TS wild-type tandem repeat (R) (dsDNA)
DNA 1: CCGCGCCACTTGGCCTGCCTCCGTCCCG
DNA 2: CGGGACGGAGGCAGGCCAAGTGGCGCGG
binding result [4]: binds
